Structures can show the parent of a compound that is named as a salt.
Key:
[1] = Solubility in 50 mM phosphate buffer at pH 7.4; format: physicochemical; conditions: suitability for IV dosage forms
[2] = test system: BT474 (human breast carcinoma); assay: Methylene Blue Growth Inhibition Assay; format: cell-based; conditions: BT-474, 72 h, BT474, 3 days incubation
Method: (§1) Tumor cell lines used in this assay were BT474 (human breast carcinoma) and LNCaP (lymph node metastasis of prostate cancer). HFF (normal human foreskin fibroblast) was also included. All cell lines were cultured in RPMI 1640 media (Invitrogen Corporation 22400-071) containing 10% Fetal Bovine Serum (FBS) at 37° C. in a humidified 5% CO2 incubator. Cells were harvested using trypsin/EDTA, counted using a hemacytometer and plated in 96-well tissue culture plates (Costar 35-3075), 100 uL per well, at the following densities: BT474 15,000 cells/well, LNCaP 5,000 cells/well and HFF 5,000 cells/well. 10 mM stocks of compounds in DMSO were serially diluted in DMSO through nine 3-fold dilutions in 96-well plates (Costar Corning 3363), and stored at −80 C. The next day, compound dilutions were thawed and 4 uL of each transferred to 662 uL RPMI 1640+100 ug/mL gentamicin, resulting in twice the final required test concentrations. 100 uL of compounds diluted in RPMI 1640 were added to all cell lines. The final concentration of DMSO in all wells, including controls, was 0.3%. Cells were incubated at 37 C, 5% CO2 for 3 days. Medium was removed by aspiration. Cell biomass was estimated by staining cells with 80 uL methylene blue (Sigma M9140, 0.5% in 50:50 ethanol:water), and incubating at room temperature for 1 hour. Stain was aspirated and the plates rinsed by immersion in water, then air-dried. Stain was released from cells by adding 100 uL of solubilizing solution (1% N-lauroyl sarcosine, sodium salt, Sigma L5125, in PBS) and incubating at room temperature for at least 30 minutes. Plates were shaken and the optical density at 620 nm was measured on a microplate reader. Percent inhibition of cell growth was calculated relative to vehicle-treated control wells. Concentration of compound that inhibits 50% of cell growth (IC50) was interpolated using non-linear regression (Levenberg-Marquadt) and the equation, y=Vmax*(1−(x̂n/K̂n+x̂n)))+Y2. [Ref: Mager, M. E. (1972) Data Analysis in Biochemistry and Biophysics. New York: Academic Press]

[3] = test system: LNCaP (lymph node metastasis of prostate cancer); assay: Methylene Blue Growth Inhibition Assay; format: cell-based; conditions: Homo sapiens, 72 h, 3 days incubation
Method: as §1

[4] = test system: HFF (normal human foreskin fibroblast); assay: Methylene Blue Growth Inhibition Assay; format: cell-based; conditions: 72 h, HFF normal cells, 3 days incubation
Method: as §1

| IC50 [2] [nM] | IC50 [3] [nM] | Compound | solubility (assessment in words) [1] | IC50 [4] [µM] |
| --- | --- | --- | --- | --- |
| 6 | 4 | CCn1c(-c2nonc2N)nc2c(C#CC(C)(C)O)ncc(OC[C@@H]3CNCCS3)c21 (single isomer, unassigned; enantiomer e1) [Example 3, 4-{2-(4-amino-1,2,5-oxadiazol-3-yl)-1-ethyl-7-[(2-thiomorpholinylmethyl)oxy]-1H-imidazo[4,5-c]pyridin-4-yl}-2-methyl-3-butyn-2-ol dihydrochloride (enantiomer E1)] | suitable for formulation into dosage forms for IV administration | > 30 |
| 186 | 83 | CCn1c(-c2nonc2N)nc2c(C#CC(C)(C)O)ncc(OC[C@@H]3CN(C)CCS3)c21 (single isomer, unassigned; enantiomer e1) [Example 7, 4-(2-(4-amino-1,2,5-oxadiazol-3-yl)-1-ethyl-7-{[(4-methyl-2-thiomorpholinyl)methyl]oxy}-1H-imidazo[4,5-c]pyridin-4-yl)-2-methyl-3-butyn-2-ol (enantiomer E1)] |  | > 30 |
| 80 | 49 | CCn1c(-c2nonc2N)nc2c(C#CC(C)(C)O)ncc(OCC3CNCC(C)O3)c21 (stereo in doubt) [Example 9, 4-[2-(4-amino-1,2,5-oxadiazol-3-yl)-1-ethyl-7-({[(2R)-6-methyl-2-morpholinyl]methyl}oxy)-1H-imidazo[4,5-c]pyridin-4-yl]-2-methyl-3-butyn-2-ol, dihydrochloride] | suitable for formulation into dosage forms for IV administration | 9.39 |
| 484 | 16 | CCn1c(-c2nonc2N)nc2c(C#CC(C)(C)O)ncc(OC[C@H]3CCCNC3)c21 [Example 1, 4-(2-(4-amino-1,2,5-oxadiazol-3-yl)-1-ethyl-7-{[(3S)-3-piperidinylmethyl]oxy}-1H-imidazo[4,5-c]pyridin-4-yl)-2-methyl-3-butyn-2-ol] | suitable for formulation into dosage forms for IV administration | > 20 |
| 1000 | 189 | CCn1c(-c2nonc2N)nc2c(C#CC(C)(C)O)ncc(OC[C@H]3CNCCO3)c21 [Example 2, 4-(2-(4-amino-1,2,5-oxadiazol-3-yl)-1-ethyl-7-{[(2R)-2-morpholinylmethyl]oxy}-1H-imidazo[4,5-c]pyridin-4-yl)-2-methyl-3-butyn-2-ol dihydrochloric acid salt] |  | > 30 |
| 37 | 15 | CCn1c(-c2nonc2N)nc2c(C#CC(C)(C)O)ncc(OC[C@@H]3CNCCO3)c21 [Example 4, 4-(2-(4-amino-1,2,5-oxadiazol-3-yl)-1-ethyl-7-{[(2S)-2-morpholinylmethyl]oxy}-1H-imidazo[4,5-c]pyridin-4-yl)-2-methyl-3-butyn-2-ol] | suitable for formulation into dosage forms for IV administration | > 25 |
| 1030 | 459 | CCn1c(-c2nonc2N)nc2c(C#CC(C)(C)O)ncc(OCC3CCNC3)c21 (stereo not shown) [Example 5, 4-[2-(4-amino-1,25-oxadiazol-3-yl)-1-ethyl-7-[(3-Pyrrolidinylmethyl)oxy]-1H-imidazo[4,5-c]pyridin-4-yl]-2-methyl-3-butyn-2-ol, bis-trifluoroacetic acid salt] |  | 20.1 |
| 324 | 53 | CCn1c(-c2nonc2N)nc2c(C#CC(C)(C)O)ncc(OC[C@H]3CCCN(C)C3)c21 [Example 6, 4-[2-(4-amino-1,2,5-oxadiazol-3-yl)-1-ethyl-7-({[(3S)-1-methyl-3-piperidinyl]methyl}oxy)-1H-imidazo[4,5-c]pyridin-4-yl]-2-methyl-3-butyn-2-ol, dihydrochloride] |  | 16.8 |
| 665 | 272 | CCn1c(-c2nonc2N)nc2c(C#CC(C)(C)O)ncc(OC[C@@H]3CN(C)CCO3)c21 [Example 8, 4-[2-(4-amino-1,2,5-oxadiazol-3-yl)-1-ethyl-7-({[(2S)-4-methyl-2-morpholinyl]methyl}oxy)-1H-imidazo[4,5-c]pyridin-4-yl]-2-methyl-3-butyn-2-ol] |  | > 30 |

From patent publication US20100056523A1, “INHIBITORS OF AKT ACTIVITY” (SMITHKLINE BEECHAM CORPORATION, priority 2005, published 2010)
